Laboratory results reported in ChEMBL document CHEMBL1155181, “Structure-based design of substituted biphenyl ethylene ethers as ligands binding in the hydrophobic pocket of gp41 and blocking the helical bundle formation” (Bioorg Med Chem Lett, 2009).

How the values were obtained:
[1] = tested on: Human immunodeficiency virus; experiment: Inhibition of HIV gp41 hexamer bundle formation at 50 uM after 30 mins by size exclusion chromatography assay
[2] = Inhibition of HIV gp41 hexamer bundle formation after 30 mins by size exclusion chromatography assay; parameters: species or system Human immunodeficiency virus
[3] = tested on: Human immunodeficiency virus; experiment: Inhibition of HIV gp41 six-helix bundle formation at 25 uM by FRET-based assay relative to C18Aib
[4] = tested on: Human immunodeficiency virus; experiment: Inhibition of HIV gp41 six-helix bundle formation at 25 uM by FRET-based assay relative to ADS--J1
[5] = Inhibition of HIV gp41 hexamer bundle formation after 30 mins by SEC-HPLC assay; parameters: species or system Human immunodeficiency virus
[6] = Inhibition of HIV gp41 hexamer bundle formation by ELISA; parameters: species or system Human immunodeficiency virus

inhibition [1] [%]	IC50 ([2]; read-out: IC50) [µM]	inhibition [3] [%]	inhibition [4] [%]	IC50 [2]	IC50 [5] [µM]	IC50 [6] [µM]	Compound
95	31	75	67	–	–	–	COC(=O)c1ccc(CCOc2cccc(-c3cccc(-c4nn[nH]n4)c3)c2)c2ccccc12
100	32.9	–	–	–	–	–	O=S(=O)(c1ccccc1)n1ccc2c(CCOc3cccc(-c4cccc(-c5nnn[nH]5)c4)c3)cccc21
100	–	–	–	Not Active	–	–	CC(C)(C)OC(=O)n1ccc2c(CCOc3cccc(-c4cccc(-c5nnn[nH]5)c4)c3)cccc21
–	–	–	–	–	0.9	1	O=C(O)c1ccc(-c2c3nc(c(-c4ccc(C(=O)O)cc4)c4ccc([nH]4)c(-c4ccc(C(=O)O)cc4)c4ccc([nH]4)c(-c4ccc(C(=O)O)cc4)c4nc2C=C4)C=C3)cc1
